Measurements taken from ChEMBL document CHEMBL3137667, “[Drug-induced liver injury; fourteenth updated edition of the bibliographic database of liver injuries and related drugs]” (Gastroenterol Clin Biol, 2004).

Assays:
[1] = human, serum
[2] = human, serum; remark: listed apart in the source
[3] = Highest frequency of moderate liver toxicity observed during clinical trials, expressed as a percentage. [column '% BIOL' in source]; conditions: human
[4] = human
[5] = Times to onset, minimal and maximal, observed in the indexed observations. [column 'DELAI' in source]; conditions: human
[6] = human; remark: listed apart in the source
[7] = Comments (NB not yet translated). [column 'COMMENTAIRES' in source]; conditions: human
[8] = human, serum, 4383 h
[9] = human; remark: listed apart in the source
[10] = human; remark: listed apart in the source
[11] = human; remark: listed apart in the source
[12] = human; remark: listed apart in the source
[13] = human; remark: listed apart in the source
[14] = human; remark: listed apart in the source
[15] = Highest frequency of acute liver toxicity observed during clinical trials, expressed as a percentage. [column '% AIGUE' in source]; conditions: human
[16] = human; remark: listed apart in the source
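Wherever Hepatotoxicity (association with vascular disease) is given: count of indexed literature references reporting vascular liver injury in humans, e.g. peliosis hepatitis, hepatic veno-occlusive disease or Budd-Chiari syndrome.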
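Wherever Hepatotoxicity (benign tumour) is given: value is a count of indexed literature references citing a benign tumour confirmed by histopathology.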
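Wherever Hepatotoxicity (choleostasis) is given: human cholestatic liver injury, shown by histopathology or by peak ALT or AST elevation over alkaline phosphatase ratio below 2, value counts indexed literature reports.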
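Wherever Hepatotoxicity (chronic liver disease) is given: chronic liver injury confirmed by histopathology or persistently raised serum aminotransferase activity beyond 6 months, value given as the count of indexed literature references.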
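Wherever Hepatotoxicity (cirrhosis) is given: value is a count of indexed literature references reporting cirrhosis confirmed by histopathology.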
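Wherever Hepatotoxicity (cytolytic) is given: human cytolytic liver injury, shown by histopathology or by a ratio above 5 of peak ALT or AST elevation to alkaline phosphatase elevation, value counts indexed references.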
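Wherever Hepatotoxicity (granulomatous hepatitis) is given: value is a count of indexed literature references reporting granulomatous liver disease confirmed by histopathology.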
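Wherever Hepatotoxicity (malignant tumour) is given: malignant tumour confirmed by histopathology, value gives the count of indexed literature references reporting it.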
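Wherever Hepatotoxicity (severe hepatitis) is given: human clinical data: severe hepatitis, meaning potentially life-threatening liver failure or clinically observed cases, the value counts how many indexed literature references report it.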
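Wherever Hepatotoxicity (steatosis) is given: steatosis confirmed by histopathology, value is the count of indexed references.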

Molecule | Hepatotoxicity (moderate) [1] | Hepatotoxicity (acute) [2] | Hepatotoxicity (time to onset) [5] | Hepatotoxicity (malignant tumour) [6] | Hepatotoxicity (comment) [7] | Hepatotoxicity (chronic liver disease) [8] | Hepatotoxicity (cirrhosis) [11] | Hepatotoxicity (association with vascular disease) [12] | Hepatotoxicity (steatosis) [13] | Hepatotoxicity (benign tumour) [16] | Hepatotoxicity (moderate) [3] | Hepatotoxicity (choleostasis) [4] | Hepatotoxicity (cytolytic) [9] | Hepatotoxicity (granulomatous hepatitis) [10] | Hepatotoxicity (severe hepatitis) [14] | Hepatotoxicity (acute) [15] | other results
CC(=O)[C@@]1(O)CC[C@H]2[C@@H]3C[C@H](C)C4=CC(=O)CC[C@]4(C)[C@H]3CC[C@@]21C | 5 | 3 | 1 month - 1.7 years | 0 | LITHIASE | 0 | 0 | 0 | 0 | 0 |  |  |  |  |  |  | Hepatotoxicity (moderate) ([3]; Liver): 4.9%; Hepatotoxicity (choleostasis) ([4]; Liver): 1; Hepatotoxicity (cytolytic) ([9]; Liver): 1; Hepatotoxicity (granulomatous hepatitis) ([10]; Liver): 0; Hepatotoxicity (severe hepatitis) ([14]; Liver): 1; Hepatotoxicity (acute) ([15]; Liver): 3.3%
CC/C(=C(/CC)c1ccc(OP(=O)(O)O)cc1)c1ccc(OP(=O)(O)O)cc1 [DIETHYLSTILBESTROL DIPHOSPHATE] | 1 | 0 | 3 months - 9 years | 0 | NASH | 1 | 1 | 0 | 1 | 0 | 6.3% | 0 | 0 | 0 | 0 | 0% | 
C[C@]12COC(=O)C[C@@H]1CC[C@@H]1[C@@H]2CC[C@@]2(C)[C@H]1CC[C@]2(C)O [OXANDROLONE] | 0 | 2 | 6 months | 0 | HNF | 0 | 0 | 0 | 0 | 1 | 0% | 2 | 0 | 0 | 0 | 0% | 
CN1CCN(CCCN2c3ccccc3Sc3ccc(Cl)cc32)CC1 [PROCHLORPERAZINE] | 0 | 9 | 1 week - 4 months | 0 | I/IPRONIAZIDE CHOLESTASE_PROLONGEE DUCTOPENIE | 3 | 0 | 0 | 0 | 0 | 0% | 6 | 3 | 0 | 3 | 0% | 
ANISTREPLASE | 0 | 1 | 6 days | 0 | HEMATOME_SOUS_CAPSULAIRE | 0 | 0 | 0 | 0 | 0 | 0% | 0 | 1 | 0 | 0 | 0% | 
CC(=O)/N=c1/sc(S(N)(=O)=O)nn1C [METHAZOLAMIDE] | 0 | 1 | 2 weeks | 0 | CHOLESTASE_PROLONGEE | 0 | 0 | 0 | 0 | 0 | 0% | 1 | 0 | 0 | 0 | 0% | 
O=c1cc(Cc2ccccc2)[nH]c(=S)[nH]1 [BENZYLTHIOURACIL] | 1 | 1 | 1 month - 2 months | 0 | RC/CARBIMAZOLE | 0 | 0 | 0 | 0 | 0 | 0% | 1 | 0 | 0 | 0 | 0% | 
O=C(O)c1cc(=O)c2c(OCC(O)COc3cccc4oc(C(=O)O)cc(=O)c34)cccc2o1 [CROMOLYN] | 1 | 0 | 4 months - 10 months | 0 | #CBP | 0 | 1 | 0 | 0 | 0 | 16.7% | 0 | 0 | 1 | 0 | 0% | 
Cc1cc(Br)c(O)c2ncccc12 [TILBROQUINOL] | 0 | 1 | 4 days | 0 | CHOLANGITE | 0 | 0 | 0 | 0 | 0 | 0% | 0 | 0 | 1 | 0 | 0% | 
CCCCC1C(=O)N(c2ccccc2)N(c2ccc(O)cc2)C1=O (stereo not given) [OXYPHENBUTAZONE ANHYDROUS] | 3 | 9 | 1 week - 2 months | 0 | RC/PHENYLBUTAZONE | 0 | 1 | 0 | 1 | 0 | 0% | 3 | 4 | 5 | 3 | 0% | 
